These are literature values, as cited in publication PMC4621754, “Parasitic diarrheal disease: drug development and targets” (Frontiers in Microbiology, 2015).

In general, IC50 refers to the point on the concentration scale where inhibition reaches its midpoint.

Like-named read-outs stand apart in the source and are kept apart here.

The test system of one data set is E. histolytica PPi-PFK. Set-up: method as in Reeves et al., 1974, 1976. The settings on record: ref Reeves et al., 1974, 1976.
In another data set the test system is tubulin. Details: method as in Valdez et al., 2002. The settings on record: ref Valdez et al., 2002.
Data set [1] relates to Encephalitozoon spp. and E. bieneusi. Details: method as in Bacchi and Weiss, 2004. The note with it: in vitro; ref Bacchi and Weiss, 2004.
For data set [2], the system named is methionine aminopeptidase type 2(MetAP2). Details: method as in Molina et al., 2002. The note with it: E. cuniculi; non-competitive, irreversible; ref Molina et al., 2002.
Data set [3] relates to B. hominis. Set-up: method as in Nasirudeen et al., 2004. The note with it: ref Nasirudeen et al., 2004.
The test system of the next data set is I. belli. The settings on record: for cure of I. belli induced diarrhea: ref Trier et al., 1974, Syrkis et al., 1975, Butler and De Boer, 1981, Weiss et al.
The test system of the next data set is human cells. The settings on record: ref Bendesky et al., 2002.
The test system of data set [4] is B. hominis. Set-up: method as in Van Hellemond et al., 2013. The settings on record: in comparison to metronidazole; ref Van Hellemond et al., 2013.
Data set [5] has as its system E. intestinalis. Set-up: method as in Menotti et al., 2005; Pozio and Morales, 2005. The settings on record: tissue culture, ref Menotti et al., 2005, Pozio and Morales.
The test system of data set [6] is E. intestinalis. Details: method as in Didier et al., 2006. The settings on record: in vitro; ref Didier et al., 2006.
Another data set concerns Carbamate kinase. Details: method as in Galkin et al., 2014. The settings on record: ref Galkin et al., 2014.
The subject of a further data set is giardiasis. Set-up: method as in Galkin et al., 2014. The note with it: mice; ref Galkin et al., 2014.
The test system of another data set is cryptosporidiosis. Details: method as in Mead, 2002; Gargala, 2008. The note with it: ref Mead, 2002, Gargala, 2008.
On the set-up of data set [7]: method as in Diaz et al., 2003. The settings on record: intestinal infection caused by C. cayetanensis; ref Diaz et al., 2003.
In another data set the test system is microsporidia. Set-up: method as in Didier et al., 2005. The note with it: ref Didier et al., 2005.
In data set [8] the test system is E. intestinalis. The note with it: ref John et al., 2005.
Data set [9] deals with Acyl-coenzyme-A synthetases. Details: method as in Guo et al., 2014. The note with it: cryptosporidial infection in mice; ref Guo et al., 2014.

`O=P(O)(O)C(O)(Cn1ccnc1)P(=O)(O)O` [CGP42446A]: the “inhibition of PFK in E. histolytica” value in the data set on E. histolytica PPi-PFK is listed as “good inhibitors”.
With `S=c1[nH]c2ccc(Cl)cc2[nH]1` [Compound 36, 5(6)-chloro-1H-benzimidazole-2-(3H)-thione], the IC50 is 5 nM in the data set on E. histolytica (ref Valdez et al., 2002) and 5 nM with G. lamblia (in vitro, ref Valdez et al., 2002). The tubulin polymerization entry in the data set on tubulin is given as “inhibits tubulin polymerization”.
Regarding `CC(=O)Oc1ccccc1C(=O)Nc1nc2ccc([N+](=O)[O-])cc2s1` [Compound 39, 2-{[(6-Nitro-1,3-benzothiazol-2-yl)amino]carbonyl}phenyl acetate], the IC50 was 297 nM with E. histolytica (ref Navarrete-Vazquez et al., 2011) and 3.52 µM in the data set with G. intestinalis (in vitro, ref Navarrete-Vazquez et al., 2011).
On to `COC(=O)Nc1ncc([N+](=O)[O-])s1` [Compound 68, methyl 5-nitro-1,3-thiazol-2-ylcarbamate], for which, in the data set on G. intestinalis (ref Nava-Zuazo et al., 2014), the half-maximal inhibitory concentration (IC50) is 0.01 µM.
On to `CCOC(=O)C(=O)Nc1ncc([N+](=O)[O-])s1` [Compound 69, ethyl [(5-nitro-1,3-thiazol-2-yl)amino](oxo)acetate], for which the 50% inhibitory concentration (IC50) in the data set on G. intestinalis (ref Nava-Zuazo et al., 2014) is 6.41 µM.
In the case of `CO[C@@H]1[C@H](OC(=O)/C=C/C=C/C=C/C=C/C(=O)O)CC[C@]2(CO2)[C@H]1[C@@]1(C)O[C@@H]1CC=C(C)C` [Fumagillin], the “activity against Encephalitozoon spp. and E. bieneusi” value in [1] is given as “potent”. In data set [2], the MetAP2 inhibition result is given as “potent inhibitor”.
In the case of `Cc1ncc([N+](=O)[O-])n1CCO` [Metronidazole], the programmed cell death result in the data set on B. hominis [3] is recorded as “induces programmed cell death”. Besides, in the data set with I. belli (1988), the “cure of I. belli induced diarrhea” value is “cure the I. belli induced diarrhea but to lesser extent”. In the data set with human cells, the genotoxicity result was “genotoxic”.
Consider `NC[C@@H]1O[C@H](O[C@H]2[C@@H](O)[C@H](O[C@@H]3[C@@H](O)[C@H](N)C[C@H](N)[C@H]3O[C@H]3O[C@H](CO)[C@@H](O)[C@H](O)[C@H]3N)O[C@@H]2CO)[C@H](N)[C@@H](O)[C@@H]1O` [Paramomycin, paromomycin], for which the “performance against B. hominis infections” value in the data set with B. hominis [4] is “superior performance in comparison to metronidazole”.
For `CC(C)c1nc(CN(C)C(=O)N[C@H](C(=O)N[C@@H](Cc2ccccc2)C[C@H](O)[C@H](Cc2ccccc2)NC(=O)OCc2cncs2)C(C)C)cs1` [Ritonavir], the “growth of E. intestinalis” value with E. intestinalis [5] is reported as “inhibited the growth”.
With `CO[C@@H]1[C@H](OC(=O)NC(=O)CCl)CC[C@]2(CO2)[C@H]1[C@@]1(C)O[C@@H]1CC=C(C)C` [TNP-470], the “inhibition of E. intestinalis replication” value in the data set with E. intestinalis [6] is “more than 70%”.
Consider `CCN(CC)C(=S)SSC(=S)N(CC)CC` [disulfiram], for which the effect on trophozoites entry in the data set on G. lamblia (ref Galkin et al., 2014) is reported as “kills the trophozoites”. For the same compound, in the data set on Carbamate kinase, the carbamate kinase inhibition entry is on record as “inhibits this enzyme”. Further, in the data set on giardiasis, the cure of giardiasis entry is “cure of giardiasis in mice”.
For `CC(C)(C)NC(=O)[C@@H]1CN(Cc2cccnc2)CCN1C[C@@H](O)C[C@@H](Cc1ccccc1)C(=O)N[C@H]1c2ccccc2C[C@H]1O` [indinavir], in the data set with E. intestinalis [5], the “growth of E. intestinalis” value is “inhibited the growth”.
As for `CC(=O)Oc1ccccc1C(=O)Nc1ncc([N+](=O)[O-])s1` [nitazoxanide], the efficacy in cryptosporidiosis entry in the data set on cryptosporidiosis (immunocompetent patients) was “effective”; in the data set on cryptosporidiosis (immunocompromised patients) it was “ineffective”. For the same compound, in data set [7], the side effects entry is recorded as “no severe side effects”.
As for `CCn1cc(C(=O)O)c(=O)c2cc(F)c(N3CCNCC3)cc21` [norfloxacin], the antimicrosporidial activity result in the data set with microsporidia was “more than gatifloxacin (6), lomefloxacin (7), moxifloxacin (8), and nalidixic acid (9)”.
On to `CC1COc2c(N3CCN(C)CC3)c(F)cc3c(=O)c(C(=O)O)cn1c23` (stereo not drawn) [ofloxacin], for which the antimicrosporidial activity result with microsporidia was “more than gatifloxacin (6), lomefloxacin (7), moxifloxacin (8), and nalidixic acid (9)”.
As for `CO[C@@H]1C(=O)CC[C@]2(CO2)[C@@]1(O)[C@@]1(C)O[C@@H]1CC=C(C)C` [ovalicin], the “inhibition of E. intestinalis replication” value in the data set on E. intestinalis [6] is on record as “more than 70%”.
With `O=[O+][O-]` [ozone], the “killing of E. intestinalis” value in the data set with E. intestinalis [8] is given as “kills”.
Turning to `CCN(CC)CCCC(C)Nc1c2ccc(Cl)cc2nc2ccc(OC)cc12` (stereo not drawn) [quinacrine], the “cure of I. belli induced diarrhea” value in the data set on I. belli (1988) is reported as “cure the I. belli induced diarrhea but to lesser extent”.
`CC[C@H]1OC(=O)[C@H](C)[C@@H](O[C@H]2C[C@@](C)(OC)[C@@H](O)[C@H](C)O2)[C@H](C)[C@@H](O[C@@H]2O[C@H](C)C[C@H](N(C)C)[C@H]2O)[C@](C)(O)C[C@@H](C)/C(=N\OCOCCOC)[C@H](C)[C@@H](O)[C@]1(C)O` [roxithromycin]: the “efficacy in chronic I. belli induced diarrhea” value with I. belli (when TMP-SMX or pyrimethamine treatments become inadequate, ref Musey et al., 1988) is on record as “effective”.
For the compound `Nc1ccc(S(=O)(=O)Nc2ncccn2)cc1` [sulfadiazine], the “cure of diarrheal disease caused by I. belli” value in the data set with I. belli (ref Ferguson et al., 1980, Ebrahimzadeh and Bottone, 1996) is “cure the diarrheal disease”.
As to `CCS(=O)(=O)CCn1c([N+](=O)[O-])cnc1C` [tinidazole], the “cure of I. belli induced diarrhea” value in the data set with I. belli (1988) is recorded as “cure the I. belli induced diarrhea but to lesser extent”.
With `CCC/C=C/C/C=C/C=C/C=N/NN=O` [triacsin C], the “inhibition of acyl-coenzyme-A synthetases” value in data set [9] is “inhibited”.
As for sirimamycin, the “efficacy in I. belli intestinal infection” value with I. belli (when pyrimethamine-sulfadoxine fails, AIDS patients, ref Ferguson et al., 1980) is “effective”.
